Key:
Conditions in all cases: exposure time: 72 h
E13 [1] = patient-derived glioblastoma stem cells of classical subtype; test: surviving fraction (nuclei count normalised to DMSO); higher = more cells surviving (less toxic)
E21 [2] = patient-derived glioblastoma stem cells of mesenchymal subtype; test: as above
E28 [3] = patient-derived glioblastoma stem cells of classical subtype; test: as above
E31 [4] = patient-derived glioblastoma stem cells of proneural subtype; test: as above
E34 [5] = patient-derived glioblastoma stem cells of proneural subtype; test: as above
E57 [6] = patient-derived glioblastoma stem cells of mesenchymal subtype; test: as above
FT3469 [7] = normal neural stem cell line; test: as above
E13 [8] = test: phenotypic distance (Euclidean, principal components) from DMSO controls (arbitrary units); higher = stronger morphological change
E21 [9] = test: as above
E28 [10] = test: as above
E31 [11] = test: as above
E34 [12] = test: as above
E57 [13] = test: as above
FT3469 [14] = test: as above
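Throughout, for phenotypic distance (Euclidean, principal components) from DMSO controls: cell Painting imaging in 384-well plates, CellProfiler features reduced to at least 20 principal components, Euclidean distance versus same-plate DMSO vehicle wells (0.1% v/v), median over six images per well.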
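Throughout, for surviving fraction (nuclei count normalised to DMSO): nuclei counted by high-content imaging of Hoechst-stained cells in laminin-coated 384-well plates, relative to 0.1% DMSO vehicle wells, with staurosporine as cell-death control.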

COc1ccc2[nH]c([S+]([O-])Cc3ncc(C)c(OC)c3C)nc2c1 (stereo unspecified) [Omeprazole]
Conditions	phenotypic distance	surviving fraction
E13 [1], 4.1 nM	–	1.05
E13 [1], 12.3 nM	–	0.938
E13 [1], 37 nM	–	0.905
E13 [1], 111.1 nM	–	1.03
E13 [1], 333.3 nM	–	0.869
E13 [1], 1000 nM	–	1
E13 [1], 3000 nM	–	0.867
E13 [8], 4.1 nM	1.1	–
E13 [8], 12.3 nM	0.755	–
E13 [8], 37 nM	3.51	–
E13 [8], 111.1 nM	0.567	–
E13 [8], 333.3 nM	0.654	–
E13 [8], 1000 nM	2.01	–
E13 [8], 3000 nM	2.52	–
E21 [2], 4.1 nM	–	0.918
E21 [2], 12.3 nM	–	0.928
E21 [2], 37 nM	–	1.02
E21 [2], 111.1 nM	–	0.96
E21 [2], 333.3 nM	–	0.928
E21 [2], 1000 nM	–	0.956
E21 [2], 3000 nM	–	0.943
E21 [9], 4.1 nM	0.405	–
E21 [9], 12.3 nM	0.66	–
E21 [9], 37 nM	0.543	–
E21 [9], 111.1 nM	0.648	–
E21 [9], 333.3 nM	0.808	–
E21 [9], 1000 nM	0.429	–
E21 [9], 3000 nM	0.519	–
E28 [3], 4.1 nM	–	0.929
E28 [3], 12.3 nM	–	1.07
E28 [3], 37 nM	–	1.08
E28 [3], 111.1 nM	–	1.01
E28 [3], 333.3 nM	–	0.973
E28 [3], 1000 nM	–	1.12
E28 [3], 3000 nM	–	1.07
E28 [10], 4.1 nM	0.44	–
E28 [10], 12.3 nM	0.413	–
E28 [10], 37 nM	0.667	–
E28 [10], 111.1 nM	0.895	–
E28 [10], 333.3 nM	0.743	–
E28 [10], 1000 nM	0.799	–
E28 [10], 3000 nM	0.723	–
E31 [4], 4.1 nM	–	0.952
E31 [4], 12.3 nM	–	1.04
E31 [4], 37 nM	–	1.03
E31 [4], 111.1 nM	–	0.985
E31 [4], 333.3 nM	–	1.06
E31 [4], 1000 nM	–	0.947
E31 [4], 3000 nM	–	0.777
E31 [11], 4.1 nM	0.572	–
E31 [11], 12.3 nM	0.759	–
E31 [11], 37 nM	0.563	–
E31 [11], 111.1 nM	0.747	–
E31 [11], 333.3 nM	0.837	–
E31 [11], 1000 nM	0.778	–
E31 [11], 3000 nM	0.726	–
E34 [5], 4.1 nM	–	1.02
E34 [5], 12.3 nM	–	1.19
E34 [5], 37 nM	–	1.12
E34 [5], 111.1 nM	–	0.869
E34 [5], 333.3 nM	–	0.988
E34 [5], 1000 nM	–	1.04
E34 [5], 3000 nM	–	0.988
E34 [12], 4.1 nM	1.17	–
E34 [12], 12.3 nM	0.774	–
E34 [12], 37 nM	1.1	–
E34 [12], 111.1 nM	0.579	–
E34 [12], 333.3 nM	1.09	–
E34 [12], 1000 nM	0.511	–
E34 [12], 3000 nM	0.693	–
E57 [6], 4.1 nM	–	1.08
E57 [6], 12.3 nM	–	0.963
E57 [6], 37 nM	–	0.934
E57 [6], 111.1 nM	–	0.99
E57 [6], 333.3 nM	–	0.91
E57 [6], 1000 nM	–	1.01
E57 [6], 3000 nM	–	0.926
E57 [13], 4.1 nM	0.551	–
E57 [13], 12.3 nM	0.53	–
E57 [13], 37 nM	0.343	–
E57 [13], 111.1 nM	0.729	–
E57 [13], 333.3 nM	0.596	–
E57 [13], 1000 nM	0.755	–
E57 [13], 3000 nM	1.11	–
FT3469 [7], 4.1 nM	–	0.946
FT3469 [7], 12.3 nM	–	1.04
FT3469 [7], 37 nM	–	1
FT3469 [7], 111.1 nM	–	0.823
FT3469 [7], 333.3 nM	–	1.04
FT3469 [7], 1000 nM	–	0.979
FT3469 [7], 3000 nM	–	0.976
FT3469 [14], 4.1 nM	0.923	–
FT3469 [14], 12.3 nM	0.698	–
FT3469 [14], 37 nM	0.685	–
FT3469 [14], 111.1 nM	1.14	–
FT3469 [14], 333.3 nM	0.549	–
FT3469 [14], 1000 nM	0.593	–
FT3469 [14], 3000 nM	0.772	–

CC[C@@]1(O)C(=O)OCc2c1cc1n(c2=O)Cc2cc3c(CN(C)C)c(O)ccc3nc2-1 [Topotecan]
Conditions	phenotypic distance	surviving fraction
E13 [1], 4.1 nM	–	0.414
E13 [1], 12.3 nM	–	0.381
E13 [1], 37 nM	–	0.367
E13 [1], 111.1 nM	–	0.279
E13 [1], 333.3 nM	–	0.251
E13 [1], 1000 nM	–	0.206
E13 [1], 3000 nM	–	0.176
E13 [8], 4.1 nM	5.03	–
E13 [8], 12.3 nM	5.52	–
E13 [8], 37 nM	5.83	–
E13 [8], 111.1 nM	6.68	–
E13 [8], 333.3 nM	6.45	–
E13 [8], 1000 nM	6.68	–
E13 [8], 3000 nM	7.15	–
E21 [2], 4.1 nM	–	0.191
E21 [2], 12.3 nM	–	0.135
E21 [2], 37 nM	–	0.114
E21 [2], 111.1 nM	–	0.115
E21 [2], 333.3 nM	–	0.13
E21 [2], 1000 nM	–	0.113
E21 [2], 3000 nM	–	0.104
E21 [9], 4.1 nM	4.95	–
E21 [9], 12.3 nM	5.78	–
E21 [9], 37 nM	6.25	–
E21 [9], 111.1 nM	6.93	–
E21 [9], 333.3 nM	5.67	–
E21 [9], 1000 nM	5.76	–
E21 [9], 3000 nM	5.07	–
E28 [3], 4.1 nM	–	0.408
E28 [3], 12.3 nM	–	0.351
E28 [3], 37 nM	–	0.384
E28 [3], 111.1 nM	–	0.347
E28 [3], 333.3 nM	–	0.333
E28 [3], 1000 nM	–	0.288
E28 [3], 3000 nM	–	0.28
E28 [10], 4.1 nM	3.44	–
E28 [10], 12.3 nM	3.75	–
E28 [10], 37 nM	3.05	–
E28 [10], 111.1 nM	3.65	–
E28 [10], 333.3 nM	3.55	–
E28 [10], 1000 nM	4.27	–
E28 [10], 3000 nM	4.08	–
E31 [4], 4.1 nM	–	0.173
E31 [4], 12.3 nM	–	0.149
E31 [4], 37 nM	–	0.188
E31 [4], 111.1 nM	–	0.176
E31 [4], 333.3 nM	–	0.249
E31 [4], 1000 nM	–	0.17
E31 [4], 3000 nM	–	0.213
E31 [11], 4.1 nM	3.31	–
E31 [11], 12.3 nM	3.53	–
E31 [11], 37 nM	2.95	–
E31 [11], 111.1 nM	3.38	–
E31 [11], 333.3 nM	3.17	–
E31 [11], 1000 nM	3.49	–
E31 [11], 3000 nM	3.68	–
E34 [5], 4.1 nM	–	0.539
E34 [5], 12.3 nM	–	0.576
E34 [5], 37 nM	–	0.519
E34 [5], 111.1 nM	–	0.55
E34 [5], 333.3 nM	–	0.529
E34 [5], 1000 nM	–	0.519
E34 [5], 3000 nM	–	0.389
E34 [12], 4.1 nM	3.5	–
E34 [12], 12.3 nM	2.99	–
E34 [12], 37 nM	3.02	–
E34 [12], 111.1 nM	2.09	–
E34 [12], 333.3 nM	2.86	–
E34 [12], 1000 nM	4.13	–
E34 [12], 3000 nM	3.32	–
E57 [6], 4.1 nM	–	0.321
E57 [6], 12.3 nM	–	0.211
E57 [6], 37 nM	–	0.175
E57 [6], 111.1 nM	–	0.164
E57 [6], 333.3 nM	–	0.145
E57 [6], 1000 nM	–	0.129
E57 [6], 3000 nM	–	0.109
E57 [13], 4.1 nM	6.01	–
E57 [13], 12.3 nM	7.66	–
E57 [13], 37 nM	7.47	–
E57 [13], 111.1 nM	7.5	–
E57 [13], 333.3 nM	7.56	–
E57 [13], 1000 nM	6.96	–
E57 [13], 3000 nM	7.64	–
FT3469 [7], 4.1 nM	–	0.622
FT3469 [7], 12.3 nM	–	0.625
FT3469 [7], 37 nM	–	0.634
FT3469 [7], 111.1 nM	–	0.653
FT3469 [7], 333.3 nM	–	0.629
FT3469 [7], 1000 nM	–	0.446
FT3469 [7], 3000 nM	–	0.464
FT3469 [14], 4.1 nM	2.65	–
FT3469 [14], 12.3 nM	1.91	–
FT3469 [14], 37 nM	2.54	–
FT3469 [14], 111.1 nM	2.79	–
FT3469 [14], 333.3 nM	2.66	–
FT3469 [14], 1000 nM	3.43	–
FT3469 [14], 3000 nM	3.06	–
